Assay results reported in patent US10864269B2, “Therapeutic combinations comprising anti-CD73 antibodies and uses thereof” (MedImmune Limited, priority 2014, dated 2020).

System: CT26 murine syngeneic tumors
Assay: CT26 syngeneic tumor model, MEDI9447 monotherapy
Type: in vivo, Balb/C mice
Procedure: CT26 cells, which are derived from a murine colon cancer, were established by subcutaneous (SC) injection of 5×10^5 cells suspended in 0.1 mL of PBS into the right flanks of 4-to-6-week-old female mice. The mice were treated with MEDI9447 or with a control antibody.
10 mice per group were used in this study. Animals were randomly assigned into groups. Animals in Group 1 were untreated and Group 2 was administered an isotype control. MEDI9447 was administered to Group 3. Test articles were administered intraperitoneally twice weekly starting on Day 3. On Day 16, 5 animals from each group were necropsied and tumors were isolated.
Tumors were measured on Days 1, 7, 9, 12, 14, and 16 by caliper, and the volumes of tumors were calculated as follows: […] (1) The anticancer effects of MEDI9447 were expressed as percent tumor growth inhibition, which was calculated as follows: (Average tumor volume for MEDI9447/Average tumor volume for R347-TM)×100 (2)
Tumors were isolated for flow cytometry. Tumors were dissected from CT26 tumor-bearing mice on study Day 16. Tumors were cut into small pieces and were digested with collagenase. […] Dissociated cells were pelleted at 1000 rpm for 5 minutes at 4° C. and were re-suspended in fluorescence-activated cell sorting (FACS) buffer. Cells were counted on Vi-Cell using the default setting. […]

Substance: MEDI9447: IgG1 with CD730010-derived VL of SEQ ID NO: 68 and VH of SEQ ID NO: 82
- tumor growth (CT26, Balb/C mice, 10 mg/kg IP 2X weekly): inhibited tumor growth
- proportion of tumor-infiltrating MDSCs (CT26 tumors harvested study Day 16, flow cytometry): reduced
